From patent US20060058296A1, “Treatment of osteolytic lesions associated with multiple myeloma by inhibition of p38 map kinase” (Scios, Inc., priority 2003, published 2006)
Structures can show the parent of a compound that is named as a salt. Each block holds one compound with its values, some of them ahead of it.

What was measured:
[1] = tested on: VEGF; test: VEGF secretion from MM contact-activated BMSC; type: cell-based, human
From the text: p38 MAPK controls secretion of these factors in-vitro in systems representing the BM milieu.
In addition to promoting vascularization, VEGF is a growth-supporting factor for MM cells. Neovascularization of MM tumors in the marrow allows growth beyond diffusion limitations for gas and nutrient exchange. VEGF is secreted from MM contact-activated BMSC, and this secretion is inhibited by p38 MAPK inhibitor Compound 4 (FIG. 10).

[2] = tested on: MIP-1α; test: MIP-1α production in MM/BMSC co-cultures; type: cell-based, human
From the text: MIP-1α elevation in MM patient serum correlates with disease severity. Unlike many MM-relevant cytokines present in the marrow microenvironment, which are produced mainly by the activated BMSC, MM cells are the primary source of MIP-1α. IL-1 further induces MIP-1α production.

[3] = tested on: U266B; test: MM cell proliferation, U266B; type: cell-based; settings: 72-hour exposure
[4] = target: T1, COX-1 (Homo sapiens, UniProt P23219); test: Activity of platelet-derived preparation of COX-1; type: biochemical
T1 construct: a platelet-derived preparation of COX-1; from tissue; host or cells: platelets
T1 sequence (P23219 24-599): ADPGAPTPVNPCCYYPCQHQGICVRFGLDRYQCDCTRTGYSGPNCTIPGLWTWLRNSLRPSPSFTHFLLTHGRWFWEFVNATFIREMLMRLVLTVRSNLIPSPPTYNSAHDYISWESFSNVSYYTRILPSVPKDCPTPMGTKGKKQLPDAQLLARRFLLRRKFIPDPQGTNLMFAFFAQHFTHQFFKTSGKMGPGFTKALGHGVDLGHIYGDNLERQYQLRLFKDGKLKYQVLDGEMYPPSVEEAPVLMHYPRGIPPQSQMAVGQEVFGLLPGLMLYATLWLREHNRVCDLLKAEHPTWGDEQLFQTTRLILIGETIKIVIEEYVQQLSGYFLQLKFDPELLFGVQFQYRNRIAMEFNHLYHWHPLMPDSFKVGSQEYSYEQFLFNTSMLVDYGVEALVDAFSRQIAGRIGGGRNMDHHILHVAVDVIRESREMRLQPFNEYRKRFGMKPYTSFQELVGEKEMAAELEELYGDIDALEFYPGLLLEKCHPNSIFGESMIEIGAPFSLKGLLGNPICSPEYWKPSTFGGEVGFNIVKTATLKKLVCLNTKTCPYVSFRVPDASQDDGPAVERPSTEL

[5] = tested on: ARH-77; test: MM cell proliferation, ARH-77; type: cell-based; settings: ARH-77, 72-hour exposure
[6] = tested on: IM9; test: MM cell proliferation, IM9; type: cell-based; settings: IM9, 72-hour exposure
[7] = tested on: COX-2 mRNA; test: LPS-induced COX-2 mRNA; type: cell-based, human
[8] = tested on: human myeloma (RPM18266) tumor; test: Human myeloma xenograft plasmacytoma model in beige-nude-xid mouse; type: in vivo
Experimental: The p38 MAPK signaling pathway plays an important role in different pathological conditions and specific inhibitors of p38 alpha and beta MAPK block production of the major inflammatory cytokines. Human multiple myeloma (MM) is an incurable neoplasm of terminally differentiated B cells and MM disease progression is affected by immunoregulatory elements such as IL-6 and other cytokines. […] Treatment (90 mg/kg/bid by oral gavage) is initiated in mice with palpable tumor size (˜200 mm^3) as judged by tumor volume.

[9] = tested on: arthritic lesions in the hind paws; test: Chick type II collagen arthritis in rats with established disease; type: in vivo, rat
Experimental: Rats treated intradermally with chick type II collagen develop arthritic lesions in the hind paws similar to human arthritic joints with respect to accumulation of pannus tissue, presence of inflammatory cells, and increased expression of inflammatory cytokines. […] Animals were scored daily by an observer blinded with respect to treatment regimen. At the completion of the study on Day 28, radiographic images were analyzed in a blinded manner, based upon the extent of soft tissue swelling, joint space narrowing, and bone destruction. Animal weights at the beginning and end of the study were also recorded, as weight loss is associated with disease progression in this model.

[10] = tested on: primary murine marrow derived osteoclast precursors; test: Osteoclast differentiation, primary murine marrow derived osteoclast precursors; type: cell-based; settings: di-hydroxy vitamin D induced differentiation; for mature osteoclast formation: 100 nM; for mature osteoclast formation prevented: increasing doses
Experimental: Inhibition of p38α MAPK prevented osteoclast differentiation in two types of standard in vitro models. In the first, primary murine marrow derived osteoclast precursors are cultured in the presence of di-hydroxy vitamin D to induce differentiation. […] In the second model, primary human marrow-derived osteoclast precursors are cultured in the presence of dihydroxy vitamin D [(OH)2D3] to induce differentiation. In both cases, 100 nM of the exemplary p38 MAPK inhibitors prevents osteoclast formation as measured by tartrate resistant acid phosphatase (TRAP) staining or by staining with 23c6 (a mature osteoclast cell surface marker)(FIG. 14).

[11] = tested on: IL-11; test: IL-1 and TGFβ induction of IL-11 in BMSC and MM/BMSC cultures; type: cell-based, human; settings: 100 nM
From the text: p38 MAPK controls secretion of these factors in-vitro in systems representing the BM milieu. […] IL-11 elicits pro-fibrotic responses and promotes osteoclast-driven bone resorption.

[12] = tested on: RPMI; test: MM cell proliferation, RPMI; type: cell-based; settings: 72-hour exposure
[13] = tested on: IL-1β; test: LPS-induced IL-1β release in human whole blood; type: cell-based; settings: human whole blood (undiluted)
From the text: IL-1β illustrates the importance of amplification loops in myeloma-induced cytokine stimulation. IL-1β plays a well-documented role in the induction of multiple cytokines in a “cytokine network” of feedback loops, including strong induction of IL-6. The ability of IL-1 to increase mRNA expression and induce secretion of the MM-relevant cytokines from MM/BMSC cultures is evidence of this role.

[14] = target: T2, COX-2 enzyme (Homo sapiens, UniProt P35354); test: Activity of purified COX-2 enzyme; type: biochemical
T2 sequence (P35354 18-604): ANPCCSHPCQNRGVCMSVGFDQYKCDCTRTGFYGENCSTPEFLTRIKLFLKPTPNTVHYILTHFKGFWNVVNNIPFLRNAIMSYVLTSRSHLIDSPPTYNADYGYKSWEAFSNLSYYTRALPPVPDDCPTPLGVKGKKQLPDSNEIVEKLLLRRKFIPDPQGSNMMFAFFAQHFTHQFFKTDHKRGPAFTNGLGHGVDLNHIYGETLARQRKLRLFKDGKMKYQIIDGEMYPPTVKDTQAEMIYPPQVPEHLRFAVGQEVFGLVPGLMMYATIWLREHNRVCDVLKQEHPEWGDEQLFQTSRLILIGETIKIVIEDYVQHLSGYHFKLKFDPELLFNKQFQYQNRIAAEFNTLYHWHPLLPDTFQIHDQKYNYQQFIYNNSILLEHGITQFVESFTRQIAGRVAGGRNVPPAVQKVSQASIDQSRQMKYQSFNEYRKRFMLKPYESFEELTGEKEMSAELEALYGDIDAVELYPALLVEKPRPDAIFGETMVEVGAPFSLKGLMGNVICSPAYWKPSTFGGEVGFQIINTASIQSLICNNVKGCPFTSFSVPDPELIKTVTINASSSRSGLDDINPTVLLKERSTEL

[15] = tested on: RANKL mRNA; test: RANKL mRNA in BMSC and MM/BMSC cultures; type: cell-based, human; settings: 100 nM
Experimental: In addition, 100 nM of these p38 MAPK inhibitors blocks the weaker induction of RANKL by IL-6 in BMSC.

[16] = tested on: PGE2; test: PGE2 levels in LPS-induced human whole blood; type: cell-based
[17] = tested on: TNF-α; test: LPS-induced TNF-α secretion in whole blood; type: cell-based, human
Experimental: Other in vitro assays can assess the production of TNF-a as a correlation to p38 MAP kinase activity. One such example is a Human Whole Blood Assay. In this assay, venous blood is collected from, e.g., healthy male volunteers into a heparinized syringe and is used within 2 hours of collection. Test compounds are dissolved in 100% DMSO and 1 μl aliquots of drug concentrations ranging from 0 to 1 mM are dispensed into quadruplicate wells of a 24-well microtiter plate (Nunclon Delta SI, Applied Scientific Co., San Francisco, Calif.). Whole blood is added at a volume of 1 ml/well and the mixture is incubated for 15 minutes with constant shaking (Titer Plate Shaker, Lab-Line Instruments, Inc., Melrose Park, Ill.) at a humidified atmosphere of 5% CO2 at 37° C. Whole blood is cultured either undiluted or at a final dilution of 1:10 with RPMI 1640 (Gibco 31800+NaHCO3, Life Technologies, Rockville, Md. and Scios, Inc., Sunnyvale, Calif.). At the end of the incubation period, 10 μl of LPS (E. coli 0111:B4, Sigma Chemical Co., St. Louis, Mo.) is added to each well to a final concentration of 1 or 0.1 μg/ml for undiluted or 1:10 diluted whole blood, respectively. The incubation is continued for an additional 2 hours. The reaction is stopped by placing the microtiter plates in an ice bath, and plasma or cell-free supernates are collected by centrifugation at 3000 rpm for 10 minutes at 4° C. […]

[18] = tested on: BMSC; test: BMSC viability, MTS assay of respiratory activity; type: cell-based, human; settings: tested up to 50-fold excess of active concentration
Experimental: Neither p38 MAPK inhibition nor high concentrations of p38 MAPK inhibitor (tested up to 50-fold excess of active concentration) affected BMSC viability (FIG. 4). Viability was measured using a standard enzymatic assay of respiratory activity, MTS (3-(4,5-dimethylthiazol-2-yl)-5-(3-carboxymethoxyphenyl)-2-(4-sulfophenyl)-2H-tetrazolium). Results obtained with the p38 MAPK inhibitor are in agreement with published results using a different p38α MAPK inhibitor.

[19] = tested on: osteolytic lesions associated with multiple myeloma; test: Treatment of a patient with osteolytic lesions associated with multiple myeloma; type: in vivo, human; settings: therapeutic amount
From the text: A patient is diagnosed with multiple myeloma and presents with a number of holes or osteolytic lesions. The osteolytic lesions are caused by the rapid growth of myeloma cells, which displace osteoblasts, and disrupting the balance of bone creation and destruction. […] Osteoblast activity is increased relative to osteoclast activity. Pain from bone destruction, fracture and the like is reduced. The osteolytic lesions are caused by the rapid growth of myeloma cells, which displace osteoblasts, and disrupting the balance of bone creation and destruction. […] Osteoblast activity is increased relative to osteoclast activity. Pain from bone destruction, fracture and the like is reduced.

Structure (SMILES): COC(=O)C(=O)c1cn(C(=O)c2ccc(Cl)cc2)c2cc(OC)c(C(=O)N3CCC(Cc4ccccc4)CC3)cc12 [Compound 4]
- VEGF secretion [1]: inhibited

- activity of a platelet-derived preparation of COX-1 [4]: nor did it inhibit
- activity of the purified COX-2 enzyme [14]: did not directly inhibit
Structure (SMILES): C[C@@H]1CN(Cc2ccc(F)cc2)[C@@H](C)CN1C(=O)c1cc2c(C(=O)C(=O)N(C)C)cn(C)c2cc1Cl [Compound 57]
- IL-1-induced production of MIP-1α [2]: substantially reduce
- untreated production of MIP-1α [2]: substantially reduce
- reduction in proliferation [3]: about 20%
- reduction in proliferation [5]: about 20%
- reduction in proliferation [6]: about 20%
- LPS-induced COX-2 mRNA [7]: inhibited
- HSP27 expression in tumor cells ([8]; mouse, in vivo): significantly reduce
- p38 expression in tumor cells ([8]; mouse, in vivo): significantly reduce
- tumor volume ([8]; palpable tumors (~200 mm^3), 90 mg/kg/bid oral gavage, 21 days): significantly reduced
- tumor volume ([8]; treatment initiated at pronounced tumor size (~800 mm^3)): significant reduction
- number of neoformed microvessels, histological assessment ([8]; vs vehicle): significant reduction
- tumor volume, histological assessment at the end of dosing ([8]; vs vehicle): significant reduction
- clinical score ([9]; 10 mg/kg orally once a day): intermediate between the vehicle and 40 mg/kg groups
- clinical score ([9]; 40 mg/kg orally once a day, from third day of treatment to Day 28, vs vehicle): statistically significant improvement
- mature osteoclast formation [10]: complete blockage
- mature osteoclast formation prevented [10]: in a dose dependent manner
- IL-1 and TGFβ induction of IL-11 at the mRNA and protein levels ([11]; BMSC cultures): blocked
- IL-1 and TGFβ induction of IL-11 at the mRNA and protein levels ([11]; MM/BMSC cultures): blocked
- reduction in proliferation [12]: about 20%
- LPS-induced IL-1β release [13]: dose-dependent reduction
- basal expression of RANKL mRNA [15]: blocked
- RANKL mRNA induction by TGFβ and IL-1 ([15]; BMSC cultures): blocked
- induction of RANKL by IL-6 ([15]; BMSC): blocks
- RANKL mRNA induction by TGFβ and IL-1 ([15]; MM/BMSC cultures): blocked
- PGE2 levels [16]: reduced
- LPS-induced TNF-α secretion [17]: dose-dependent reduction
- BMSC viability [18]: Neither p38α MAPK inhibition nor high concentrations of Compound 57 (tested up to 50-fold excess of active concentration) affected BMSC viability

Structure (SMILES): C[C@@H]1CN(Cc2ccc(F)cc2)[C@@H](C)CN1C(=O)c1cc2c(C(=O)C(=O)N(C)C)cn(C)c2cc1Cl [Compound 57 hydrochloride salt]
- pain from bone destruction, fracture and the like [19]: reduced

Structure (SMILES): CN(C)C(=O)C(=O)c1c[nH]c2cc(Cl)c(C(=O)N3CCC(Cc4ccc(F)cc4)CC3)cc12 [Compound 162]
- mature osteoclast formation [10]: complete blockage
- mature osteoclast formation prevented [10]: in a dose dependent manner
